Test results published in US7838218B2, “Light emitting probes” (priority 2003, dated 2010).

Molecular target: T1, rabbit serum albumin (RSA) (Oryctolagus cuniculus, UniProt P49065)
T1 construct: purchased Sigma (Sigma-Aldrich Chemical Co.)
Experiment: Fluorescence emission of probes with rabbit serum albumin as binder
Type: binding
Conditions: pyrene butyric acid excited at 345 nm, FITC at 490 nm; PBS
Description: Fluorescence measurements were made on a Hitachi F-2500 fluorescence spectrophotometer with a 1 cm path length cuvette. Spectra were measured at a rate of 1500 nm/min. Excitation wavelength of 345 nm was used for pyrene and 490 nm for FITC.
Lifetimes were measured on modified IBH machine.
Proteins with hydrophobic pockets could be used as binders. […] The binder is not restricted to proteins. […] The excitation wavelength was 345 nm.

T1 sequence (P49065 25-608): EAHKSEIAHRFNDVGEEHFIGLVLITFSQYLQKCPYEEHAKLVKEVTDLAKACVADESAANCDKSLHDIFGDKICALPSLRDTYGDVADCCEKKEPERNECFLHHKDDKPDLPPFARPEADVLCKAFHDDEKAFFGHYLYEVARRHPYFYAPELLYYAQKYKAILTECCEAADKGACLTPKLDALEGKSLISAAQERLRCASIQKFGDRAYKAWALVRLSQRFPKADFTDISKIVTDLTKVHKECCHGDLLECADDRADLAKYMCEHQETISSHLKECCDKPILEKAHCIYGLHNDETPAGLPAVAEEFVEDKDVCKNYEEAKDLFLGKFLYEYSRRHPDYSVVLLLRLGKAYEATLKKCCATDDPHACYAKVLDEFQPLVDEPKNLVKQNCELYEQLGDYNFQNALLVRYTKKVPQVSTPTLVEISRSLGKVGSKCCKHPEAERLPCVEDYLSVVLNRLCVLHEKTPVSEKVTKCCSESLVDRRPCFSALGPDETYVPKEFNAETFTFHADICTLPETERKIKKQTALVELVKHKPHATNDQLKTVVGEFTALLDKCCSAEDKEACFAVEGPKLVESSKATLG

| Structure (SMILES) | effect of RSA on own emission spectrum of the free fluorophore |
| --- | --- |
| O=C1OC2(c3ccc(O)cc3Oc3cc(O)ccc32)c2ccc(N=C=S)cc21 [FITC, fluorescein isothiocynate] | appears not to change |
| c1cc2ccc3cccc4ccc(c1)c2c34 [pyrene butyric acid] | increasing the fluorescence intensity |
